Test results: ChEMBL document CHEMBL1134425, “alpha-Amino-beta-sulphone hydroxamates as potent MMP-13 inhibitors that spare MMP-1” (Bioorg Med Chem Lett, 2001)

Assays:
[1] = target: Collagenase 3 (Homo sapiens, UniProt P45452); assay: Inhibition of Matrix metalloprotease-13
[2] = target: T1, Interstitial collagenase (Homo sapiens, UniProt P03956); assay: Inhibition of Matrix metalloprotease-1
T1 sequence (P03956 whole entry): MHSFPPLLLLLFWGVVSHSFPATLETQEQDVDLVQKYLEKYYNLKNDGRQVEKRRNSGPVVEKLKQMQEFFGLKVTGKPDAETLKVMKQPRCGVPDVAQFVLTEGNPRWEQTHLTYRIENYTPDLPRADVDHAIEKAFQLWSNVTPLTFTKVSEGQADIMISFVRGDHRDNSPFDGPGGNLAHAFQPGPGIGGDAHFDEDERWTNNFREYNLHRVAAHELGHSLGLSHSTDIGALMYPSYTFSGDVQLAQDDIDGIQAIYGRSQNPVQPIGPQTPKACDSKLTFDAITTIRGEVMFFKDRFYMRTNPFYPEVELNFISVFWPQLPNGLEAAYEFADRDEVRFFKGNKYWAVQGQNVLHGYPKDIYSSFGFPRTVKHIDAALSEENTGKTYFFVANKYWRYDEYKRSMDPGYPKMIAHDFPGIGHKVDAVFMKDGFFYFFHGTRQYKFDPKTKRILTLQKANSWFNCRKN

[3] = target: Matrix metalloproteinase (1 and 13) (Homo sapiens) (UniProt P45452+P03956); assay: Selectivity for Matrix metalloprotease-1 over Matrix metalloprotease-13; assay type: protein assay
[4] = Maximum plasma concentration dosed orally in rats; assay type: ADME, organism-based; design: route oral; conditions: rat, po
[5] = Maximum plasma concentration dosed orally in rats after 6 hours; assay type: ADME, organism-based; design: route oral; conditions: rat, po

Row | SMILES | IC50 [1] [µM] | IC50 [2] [µM] | Selectivity [3] | Cmax [4] [µg/mL] | Cmax [5] [µg/mL]
1 | COc1ccc(S(=O)(=O)CC(N)C(=O)NO)cc1 (centres undefined) | – | – | 17 | – | –
2 | O=C(NC(CS(=O)(=O)c1ccc(Oc2ccccc2)cc1)C(=O)NO)OCc1ccccc1 (centres undefined) | 0.0011 | 1.4 | 1300 | – | –
3 | COc1ccc(S(=O)(=O)CC(NC(C)=O)C(=O)NO)cc1 (centres undefined) | – | – | 20 | – | –
4 | O=C(N[C@H](CS(=O)(=O)c1ccc(Oc2ccccc2)cc1)C(=O)NO)c1ccncc1 | 0.0008 | 0.9 | 1100 | < 0.2 | –
5 | COc1ccc(S(=O)(=O)CC(NC(=O)OC(C)(C)C)C(=O)NO)cc1 (centres undefined) | 0.015 | 1.5 | 100 | – | –
6 | CN(C(=O)OC(C)(C)C)[C@H](CS(=O)(=O)c1ccc(Oc2ccccc2)cc1)C(=O)NO | – | – | 5300 | – | –
7 | CN(C(=O)Cc1ccncc1)[C@H](CS(=O)(=O)c1ccc(Oc2ccccc2)cc1)C(=O)NO | 0.002 | – | 130 | 0.71 | –
8 | COc1cccc(OC)c1C(=O)N[C@H](CS(=O)(=O)c1ccc(Oc2ccccc2)cc1)C(=O)NO | 0.0004 | 0.35 | 870 | < 0.2 | –
9 | CC(=O)N(C)[C@H](CS(=O)(=O)c1ccc(Oc2ccccc2)cc1)C(=O)NO | 0.0002 | 0.09 | 450 | 2.45 | 0.06
10 | COc1ccc(S(=O)(=O)CC(NC(=O)CNC(=O)OCc2ccccc2)C(=O)NO)cc1 (centres undefined) | – | – | > 40 | – | –
11 | CN(Cc1ccccc1)[C@H](CS(=O)(=O)c1ccc(Oc2ccccc2)cc1)C(=O)NO | – | – | 2400 | – | –
12 | Cc1ccc(S(=O)(=O)NC(CS(=O)(=O)c2ccc(Oc3ccccc3)cc2)C(=O)NO)cc1 (centres undefined) | – | – | 670 | – | –

Next, values leading:

Row | IC50 [1] [µM] | IC50 [2] [µM] | Selectivity [3] | Cmax [4] [µg/mL] | Cmax [5] [µg/mL] | SMILES
13 | 0.0029 | 10 | 3400 | – | – | CC(=O)N[C@H](CS(=O)(=O)c1ccc(Sc2ccccc2)cc1)C(=O)NO
14 | 0.0004 | 8 | 20000 | – | – | O=C(N[C@H](CS(=O)(=O)c1ccc(Sc2ccccc2)cc1)C(=O)NO)OCc1ccccc1
15 | 0.0003 | 0.5 | 1600 | < 0.2 | – | CC(C)(C)OC(=O)N[C@H](CS(=O)(=O)c1ccc(Oc2ccccc2)cc1)C(=O)NO
16 | 0.004 | > 10 | > 2500 | – | – | CC(C)(C)OC(=O)N[C@H](CS(=O)(=O)c1ccc(Sc2ccccc2)cc1)C(=O)NO
17 | – | – | > 2700 | – | – | O=C(NC(CS(=O)(=O)c1ccc(Sc2ccccc2)cc1)C(=O)NO)OCc1ccccc1 (centres undefined)
18 | – | – | > 12000 | – | – | O=C(CNC(=O)OCc1ccccc1)NC(CS(=O)(=O)c1ccc(Sc2ccccc2)cc1)C(=O)NO (centres undefined)
19 | 0.0011 | 0.77 | 700 | – | – | CC(=O)NC(CS(=O)(=O)c1ccc(Oc2ccccc2)cc1)C(=O)NO (centres undefined)
20 | – | – | 1500 | – | – | Cc1ccc(S(=O)(=O)NC(CS(=O)(=O)c2ccc(Sc3ccccc3)cc2)C(=O)NO)cc1 (centres undefined)
21 | 0.0004 | 0.44 | 1100 | 6.66 | 0.049 | CN[C@H](CS(=O)(=O)c1ccc(Oc2ccccc2)cc1)C(=O)NO
22 | – | – | 420 | – | – | NC(CS(=O)(=O)c1ccc(Sc2ccccc2)cc1)C(=O)NO (centres undefined)
23 | – | – | > 1700 | – | – | CC(=O)NC(CS(=O)(=O)c1ccc(Sc2ccccc2)cc1)C(=O)NO (centres undefined)
